Test results from patent publication US20080319042A1, “Compositions and methods for treatment of liver disease” (priority 2007, published 2008).

Legend:
[1] = test system: HCV JFH1; assay: HCV JFH1 infectivity assay (JFH1 Foci Reduction Assay); type: cell-based, hepatitis C virus; settings: virus preincubated with compound; Huh 7 cells; 48 hr post infection; RD8, RD16, RD17, RD18 as glucosidase hydrolysis products
[2] = test system: HCV/HIV pseudovirions; assay: microbe, parasite or virus in culture; type: cell-based, hepatitis C virus; settings: 20 μg/mL
[3] = Enzyme Hydrolysis Processing Time 0.5 hours
[4] = Enzyme Hydrolysis Processing Time 4.0 hours

In the case of `COC(=O)C1=COC(O)C2C1CC(O)C2C` (mixture of isomers) [RD-8], the “Estimated IC50 (inhibition of HCV JFH1 infectivity)” value [1] is reported as 15 µg/mL, the “HCV Inhibition at 20 μg/mL” value [2, 3] is reported as 24.8 and the “HCV Inhibition at 20 μg/mL” value [2, 4] is reported as 41.4.
In the case of `COC(=O)C1=COC(O)C2C1C(O)CC2(C)O` (mixture of isomers) [RD-16], the “Estimated IC50 (inhibition of HCV JFH1 infectivity)” value [1] is reported as 14 µg/mL, the “HCV Inhibition at 20 μg/mL” value [2, 3] is reported as 49.0 and the “HCV Inhibition at 20 μg/mL” value [2, 4] is reported as 61.2.
In the case of `CC1C(O)CC2C(C(=O)O)=COC(O)C21` (mixture of isomers) [RD-17], the “Estimated IC50 (inhibition of HCV JFH1 infectivity)” value [1] is reported as 17 µg/mL, the “HCV Inhibition at 20 μg/mL” value [2, 3] is reported as 39.4 and the “HCV Inhibition at 20 μg/mL” value [2, 4] is reported as 52.5.
In the case of `O=C(C=Cc1ccc(O)cc1)OCC1=CC(O)C2C=COC(O)C12` (mixture of isomers) [RD-18], the “Estimated IC50 (inhibition of HCV JFH1 infectivity)” value [1] is reported as 26 µg/mL, the “HCV Inhibition at 20 μg/mL” value [2, 3] is reported as 46.6 and the “HCV Inhibition at 20 μg/mL” value [2, 4] is reported as 56.6.
